Results published in ChEMBL document CHEMBL1121558, “Studies on several 7-substituted N,N-dimethyltryptamines” (J Med Chem, 1980).

What was measured:
[1] = target: Serotonin (5-HT) receptor; test: Compound was evaluated for binding affinity towards 5-hydroxytryptamine receptor in isolated rat fundus preparation measured as pA2
Rattus norvegicus = species on record: Rattus norvegicus; test: Effective dose was determined for the behavioral (interoceptive cues) activity of rats; type: functional

SMILES	pA2 [1]	ED50 (Rattus norvegicus)
COc1cc2c(CCN(C)C)c[nH]c2c(OC)c1OC	5.98	
COc1cc(OC)c2[nH]cc(CCN(C)C)c2c1	5.5	3.38 mg/kg
Cc1cccc2c(CCN(C)C)c[nH]c12	6.29	
COc1cc(C)c2[nH]cc(CCN(C)C)c2c1	6.61	1.54 mg/kg
CCc1cccc2c(CCN(C)C)c[nH]c12	6.31	
CN(C)CCc1c[nH]c2c(Br)cccc12	6.51	
COc1ccc2c(CCN(C)C)c[nH]c2c1		0.4 mg/kg
COc1ccc(OC)c(CC(C)N)c1 (stereo not given)		0.59 mg/kg
